# Data: patent US10004713B2 (SICHUAN JIUZHANG BIOLOGICAL SCIENCE AND TECHNOLOGY CO., LTD, priority 2014, dated 2018)
# Columns and labels:
# human brain glioma = experiment: Inhibitory effect of chlorogenic acid on transplanted glioma in mice (tumor weight); type: in vivo; conditions: 15 d; for Tumor weight: x ± s
# Description: (1) Model establishment 50 mice were divided into 5 groups, 10 mice for each group. The solution of brain glioblastoma cell lines was suitably diluted, and inoculated in cortex of left temporal lobe of mice in five groups, respectively.
# (2) Administration and intervention After inoculated for 24 h, five groups of mice were administrated by intraperitoneal injection. […] (3) Measuring inhibitory rate On the last day, administration was ceased, and all mice were sacrificed. Mice were dissected, and tissue of tumor was removed and weighed. Inhibitory Rate=(the Mean Tumor Weight of Control Group−the Mean Tumor Weight of Treatment Group)/the Mean Tumor Weight of Control Group×100%. (4) Statistical method The data were presented as mean±standard deviation (x±s), and statistical analysis was performed using SPSS15.0 software, and p<0.05 was considered to be a statistically significant difference. 3. Results
# C6 glioma stem cells = experiment: In vitro inhibitory effect against C6 glioma stem cells by MTT method; type: cell-based, rat; conditions: 48 h; for OD values 1: replicate 1; for OD values 2: replicate 2; for OD values 3: replicate 3
# Description: (§1) 3. Cell line: C6 rat glioma cell lines for experiment is provided by Key Laboratory of Transplant Engineering and Immunology, Ministry of health, West China Hospital, Sichuan University.
# (1) C6 cells were seeded in traditional serum medium and sub-cultured in culture bottle. Cells in exponential phase of growth were washed with PBS solution, digested with 0.25% trypsin, and pipetted by self-made pasteur pipette, to form single cells. Cells were resuspended in SFM, stained with trypan blue, and counted. Cells were seeded in culture bottle with a bottom area of 25 cm^2 at a concentration of 1×10^5/well, and placed in an incubator at 37° C. with 5% CO2 and saturated humidity for culture.
# The medium was sucked out and centrifuged before half of old medium was removed, then centrifuged at 800 rpm/min for 5 min. The supernatant was discarded. Cells are resuspended in SFM, and gentle pipette with self-made pasteur pipette was repeated, for dissociating cell dumps into single cells. In a ratio of 1:2 or 1:3, cells were seeded in culture bottles with a bottom area of 25 cm^2, and diluted with SFM to 6 ml; alternatively, at the same concentration, cells were seeded in 6 well plate. To each well, was added 2.5 ml SFM, and continued culturing in an incubator at 37° C. with 5% CO2 and saturated humidity.
# (1) Cells, growing in serum-containing medium and serum-free medium and presenting exponential growth phase, were taken out, and digested with pancreatin, to form single cells. Tumor cells were still seeded in serum-containing medium, while tumor stem cells were seeded in serum-free medium. Their concentrations were both adjusted to 2.0×10^5/ml, and cells were seeded in 96 well plate, 100 μl for each well. […] Culture was carried out in an incubator at 37° C. with 5% CO2 and saturated humidity for one night. When seeding in 96 well plate, peripheral wells were not used to avoid the edge effect.
# (§2) (2) Next day after inoculation, cells attached before administration was carried out and static culture was kept for 48 h.
# (§3) (3) Wells for normal control group of tumor cells were included, and the wells were not treated with drug, and only equal amount (100 μl) of complete medium was added. Experiment on normal control group was performed, together with above three groups.
# (§4) (4) The culture was continued under 5% CO2 at 37° C., and after culturing for 48 h, cells were placed under inverted microscope for observation and taking a picture.
# (§5) (5) On sterile bench board, 20 μL 0.5% MTT was added to each well, and the culture was continued for 4 h. At 37° C., the culture was stood for overnight (same time for each group), then OD values were tested using microplate reader, while the absorbance of each well was measured at […].
# (§6) (6) Calculating inhibitory rate of cell growth Formula: Inhibitory rate of cell growth IR (%)=1−(OD value of cells in experimental group/OD value of cells in control group)×100%. (III) Statistical Analysis
# C6 glioma cells = experiment: In vitro inhibitory effect against C6 glioma cells by MTT method; type: cell-based, rat; conditions: 48 h; for OD values 1: replicate 1; for OD values 2: replicate 2; for OD values 3: replicate 3
# Description: as §1
# (1) Cells, growing in serum-containing medium and serum-free medium and presenting exponential growth phase, were taken out, and digested with pancreatin, to form single cells. Tumor cells were still seeded in serum-containing medium, while tumor stem cells were seeded in serum-free medium. Their concentrations were both adjusted to 2.0×10^5/ml, and cells were seeded in 96 well plate, 100 μl for each well. Amongst, four groups were experimental groups, and one group was negative control; the medium without cells was used as blank control, and each group had five repeated wells. Culture was carried out in an incubator at 37° C. with 5% CO2 and saturated humidity for one night. When seeding in 96 well plate, peripheral wells were not used to avoid the edge effect.
# as §2, §3, §4, §5, §6
# [1] = system: human brain oligodendroglioma cells; experiment: Inhibitory effect of chlorogenic acid on proliferation of primary culture human brain oligodendroglioma cells (MTT method / WST-1); type: cell-based; conditions: 48 h
# [2] = Rattus norvegicus, 16 μg/ml, read-out: Inhibitory rate (%)
# [3] = Rattus norvegicus, 32 μg/ml, read-out: Inhibitory rate (%)
# [4] = Rattus norvegicus, 64 μg/ml, read-out: Inhibitory rate (%)
# [5] = Rattus norvegicus, 128 μg/ml, read-out: Inhibitory rate (%)
# [6] = High dose 40 mg/kg intraperitoneal
# [7] = Low dose 10 mg/kg intraperitoneal
compound,measurement,setting,value
"CC(=O)O[C@@]12CO[C@@H]1C[C@H](O)[C@@]1(C)C(=O)[C@H](O)C3=C(C)[C@@H](OC(=O)[C@H](O)[C@@H](NC(=O)OC(C)(C)C)c4ccccc4)C[C@@](O)([C@@H](OC(=O)c4ccccc4)[C@H]21)C3(C)C [Positive control group, docetaxel, reference compound]",Inhibitory rate (%),human brain glioma; 5 mg/kg intraperitoneal,73.3%
same,Tumor weight,human brain glioma; 5 mg/kg intraperitoneal,0.389 ± 0.305 g
O=C(/C=C/c1ccc(O)c(O)c1)O[C@@H]1C[C@](O)(C(=O)O)C[C@@H](O)[C@H]1O [chlorogenic acid],OD values mean,C6 glioma stem cells; 16 μg/ml,1.715
same,OD values 1,C6 glioma stem cells; 16 μg/ml,1.713
same,OD values 2,C6 glioma stem cells; 16 μg/ml,1.700
same,OD values 3,C6 glioma stem cells; 16 μg/ml,1.731
same,OD values mean,C6 glioma stem cells; 32 μg/ml,1.634
same,OD values 1,C6 glioma stem cells; 32 μg/ml,1.533
same,OD values 2,C6 glioma stem cells; 32 μg/ml,1.739
same,OD values 3,C6 glioma stem cells; 32 μg/ml,1.631
same,OD values mean,C6 glioma stem cells; 64 μg/ml,1.378
same,OD values 1,C6 glioma stem cells; 64 μg/ml,1.367
same,OD values 2,C6 glioma stem cells; 64 μg/ml,1.358
same,OD values 3,C6 glioma stem cells; 64 μg/ml,1.410
same,OD values mean,C6 glioma stem cells; 128 μg/ml,1.223
same,OD values 2,C6 glioma stem cells; 128 μg/ml,1.200
same,inhibition at 16 µg/mL,C6 glioma stem cells; [2],23.2%
same,inhibition at 32 µg/mL,C6 glioma stem cells; [3],26.8%
same,inhibition at 64 µg/mL,C6 glioma stem cells; [4],38.2%
same,inhibition at 128 µg/mL,C6 glioma stem cells; [5],45.2%
same,OD values mean,C6 glioma cells; 16 μg/ml,1.515
same,OD values 1,C6 glioma cells; 16 μg/ml,1.640
same,OD values 2,C6 glioma cells; 16 μg/ml,1.553
same,OD values 3,C6 glioma cells; 16 μg/ml,1.351
same,OD values mean,C6 glioma cells; 32 μg/ml,1.472
same,OD values 1,C6 glioma cells; 32 μg/ml,1.558
same,OD values 2,C6 glioma cells; 32 μg/ml,1.573
same,OD values 3,C6 glioma cells; 32 μg/ml,1.286
same,OD values mean,C6 glioma cells; 64 μg/ml,1.326
same,OD values 1,C6 glioma cells; 64 μg/ml,1.314
same,OD values 2,C6 glioma cells; 64 μg/ml,1.247
same,OD values 3,C6 glioma cells; 64 μg/ml,1.417
same,OD values mean,C6 glioma cells; 128 μg/ml,1.028
same,OD values 1,C6 glioma cells; 128 μg/ml,1.021
same,OD values 2,C6 glioma cells; 128 μg/ml,1.023
same,OD values 3,C6 glioma cells; 128 μg/ml,1.041
same,inhibition at 16 µg/mL,C6 glioma cells; [2],32.1%
same,inhibition at 32 µg/mL,C6 glioma cells; [3],34%
same,inhibition at 64 µg/mL,C6 glioma cells; [4],40.6%
same,inhibition at 128 µg/mL,C6 glioma cells; [5],53.9%
same,Cellular morphology under inverted microscope,[1]; compared with normal control group,obvious decrease of cell numbers
same,inhibition at 32 µg/mL,"[1]; Homo sapiens, 32 μg/ml, read-out: Inhibitory rate (%)",39.9%
same,inhibition at 64 µg/mL,"[1]; Homo sapiens, 64 μg/ml, read-out: Inhibitory rate (%)",44.9%
same,inhibition at 128 µg/mL,"[1]; Homo sapiens, 128 μg/ml, read-out: Inhibitory rate (%)",60.4%
same,Inhibitory rate (%),human brain glioma; [6],60.58%
same,Tumor weight,human brain glioma; [6],0.529 ± 0.168 g
same,Inhibitory rate (%),human brain glioma; [7],48.51%
same,Tumor weight,human brain glioma; [7],0.690 ± 0.188 g
same,Inhibitory rate (%),human brain glioma; Middle dose 20 mg/kg intraperitoneal,69.92%
